Measurements as given in patent publication US20220153746A1, “NITROGEN OXIDE-DONATING PDE-5 AND/OR PDE-6 INHIBITOR COMPOUNDS, AND USES THEREOF” (ILDONG PHARMACEUTICAL CO., LTD., priority 2020, published 2022).
Where “and” joins values, the source holds several entries; their conditions need not be identical. Equal values may be shown once. Read-outs that look alike come from different tables or passages of the source.

Assay: TD Phase (Groups 1 and 3): plasma and ocular tissue concentrations and pharmacokinetics of Compound 18 and its metabolite Compound 4 after once daily ocular instillation of Compound 18 nanosuspension for 7 days
Type: in vivo, New Zealand white rabbits
Conditions: for Metabolite/Parent AUC Ratio: MW-corrected AUC of metabolite Compound 4 / parent Compound 18
Source text: This example illustrates the procedures and results for the levels of Compound 18 and its metabolite Compound 4 in plasma and ocular tissues of normotensive rabbits following ocular instillation of Compound 18 once daily for 7 consecutive days.
Twenty five (25) male New Zealand white rabbits were divided into 5 groups of varying amounts of animals per group.
The Test article, Compound 18 was formulated as a 2% nanosuspension in DI water containing 0.2% PS80 (polyoxyethylenesorbitan, monooleate (Tween 80)) and 0.4% HPMC (hydroxypropylmethylcellulose) at pH 6.77. Referred to herein as “Compound 18 nanosuspension.”
The study consisted of three groups (Groups 1-3) of 19 male rabbits (NZW) that underwent once daily morning ocular installation (1 eyedrop) for 7 consecutive days (Day 0-6). Groups 4-5 each consisted of 3 male rabbits (NZW) that were not dosed.
Blood samples (1 mL) were collected from the jugular vein at the intervals set out below for each group. The samples were then inverted several times following collection and held on wet ice until centrifuged. Samples were centrifuged within 60 minutes of collection under refrigeration (set at 5° C. for 10 minutes at 2000 g.
Group 1 (Pilot Study, terminal blood collection): blood was collected from 3 animals at 1 hour post day 7 dose of Compound 18 nanosuspension.
Group 3 (TD Phase, terminal blood collection): blood was collected from 3 animals at 0.5 hour, 3 animals at 2 hours, 3 animals at 4 hours, and 3 animals at 8 hours post day 7 dose of Compound 18 nanosuspension.
(§1) Group 1 (Pilot Study): 3 animals were terminated at 1 hour post Day 7 dose of Compound 18 nanosuspension. Following blood collection and termination, ocular tissues (aqueous humor, vitreous humor, cornea, iris/ciliary body, lens, optic nerve, retina, sclera/choroid, and trabecular meshwork) were collected from each animal and the tissue weights were recorded. Note: sclera and choroid were collected together. Iris and ciliary body were collected together.
as §1, with “3 (TD Phase):” for “1 (Pilot Study):”, “0.5 hour, 3 animals at 2 hours, 3 animals at 4 hours, and 3 animals at 8 hours” for “1 hour”
Plasma and tissue samples from treated animals (Groups 1-3) were analyzed for Compound 18 and its metabolite Compound 4 concentrations by LC-MS/MS.
Pharmacokinetic analysis was conducted using WinNonlin Version 6.2.1 (Pharsight, Mountain View, Calif.), operating as a validated software system. Noncompartmental analysis was conducted using the extravascular administration model for ocular instillation dosing.
The peak plasma and ocular tissue concentration, time to achieve peak plasma and ocular tissue concentration, half-life, and area under the plasma and ocular tissue concentration-time curve (Cmax, Tmax, T1/2, and AUC) were calculated from the TD phase combined with the pilot study mean animal plasma and ocular tissue concentrations for each sampling time/dose group for Compound 18 and its metabolite Compound 4.
BA Assay: Quantitation Range 0.05 to 100 ng/mL for Compound 18, 0.15 to 100 ng/mL for Compound 4.
3. Pipet 50 μL of each type of pre-spiked ocular tissue samples (AH/VH) for QC samples, 50 μL of incurred aqueous humor, and vitreous humor sample (if applicable) into a 96 well plate.
Ocular Tissues Homogenate Preparation: Incurred rabbit ocular tissues were weighed in Genogrinder tubes (plastic tubes with small beads) at the time of removal from the animal and stored frozen (<−70° C.) until analysis. The rabbit incurred ocular tissues were thawed on wet ice. […]

[1] = TD Phase, Group 1, 1 h, individual animals
[2] = TD Phase, Group 3, 0.5 h, individual animals
[3] = TD Phase, Group 3, 2 h, individual animals
[4] = TD Phase, Group 3, 8 h, individual animals
[5] = male, New Zealand white, rabbit, topical or ocular, 0.8 mg/kg/day, aqueous humor, Day 7, from mean concentrations
[6] = male, New Zealand white, rabbit, topical or ocular, 0.8 mg/kg/day, cornea, Day 7, from mean concentrations
[7] = male, New Zealand white, rabbit, topical or ocular, 0.8 mg/kg/day, iris/ciliary body, Day 7, from mean concentrations
[8] = male, New Zealand white, rabbit, topical or ocular, 0.8 mg/kg/day, lens, Day 7, from mean concentrations

SMILES: CCCc1nn(C)c2c(=O)[nH]c(-c3cc(S(=O)(=O)N4CC(CCCO)C4)ccc3OCC)nc12 [Compound 4, 5-(2-ethoxy-5-((3-(3-hydroxypropyl)azetidin-1-yl)sulfonyl)phenyl)-1-methyl-3-propyl-1,6-dihydro-7H-pyrazolo[4,3-d]pyrimidin-7-one]
- Metabolite/Parent AUC Ratio (Aqueous Humor, Day 7): 21700
- AUC0-8 (Cornea, Day 7, Compound 18 0.8 mg/kg ocular instillation once daily, Groups 1 and 3): 10096 ng·h/g
- Metabolite/Parent AUC Ratio (Cornea, Day 7): 52.7
- AUC0-8 (Iris/Ciliary Body, Day 7, Compound 18 0.8 mg/kg ocular instillation once daily, Groups 1 and 3): 1795 ng·h/g
- Metabolite/Parent AUC Ratio (Iris/Ciliary Body, Day 7): 13.1
- AUC0-8 (Lens, Day 7, Compound 18 0.8 mg/kg ocular instillation once daily, Groups 1 and 3): 68.7 ng·h/g
- AUC0-8 (Optic Nerve, Day 7, Compound 18 0.8 mg/kg ocular instillation once daily, Groups 1 and 3): 159 ng·h/g
- Metabolite/Parent AUC Ratio (Plasma, Day 7): 6.72
- AUC0-8 (Retina, Day 7, Compound 18 0.8 mg/kg ocular instillation once daily, Groups 1 and 3): 213 ng·h/g
- AUC0-8 (Sclera/Choroid, Day 7, Compound 18 0.8 mg/kg ocular instillation once daily, Groups 1 and 3): 1494 ng·h/g
- Compound 4 Plasma Conc. [1]: 0.412 ng/mL and 1.14 ng/mL and 0.839 ng/mL
- Final Compound 4 Sclera/Choroid Conc. [1]: 171 ng/g and 240 ng/g
- Final Compound 4 Retina Conc. (TD Phase, Group 1, 1 h, individual animals, BQL set to 0): 25.6 ng/g and 90.7 ng/g and 34.8 ng/g
- Compound 4 Sclera/Choroid Homogenate Conc. (TD Phase, Group 1, 1 h, individual animals, homogenate dilution factor 8): 21.4 ng/mL and 30.0 ng/mL
- Compound 4 Plasma Conc. [2]: 1.03 ng/mL and 0.812 ng/mL
- Final Compound 4 Sclera/Choroid Conc. [2]: 154 ng/g and 142 ng/g and 331 ng/g
- Compound 4 Sclera/Choroid Homogenate Conc. (TD Phase, Group 3, 0.5 h, individual animals, homogenate dilution factor 8): 19.3 ng/mL and 17.7 ng/mL and 41.4 ng/mL
- Compound 4 Plasma Conc. [3]: BQL (BQL = Below lower limit of quantitation (0.0500 ng/mL for Compound 18 and 0.150 ng/mL for Compound 4))
- Final Compound 4 Sclera/Choroid Conc. [3]: 121 ng/g and 234 ng/g and 88.0 ng/g
- Final Compound 4 Retina Conc. (TD Phase, Group 3, 2 h, individual animals, BQL set to 0): 118 ng/g and 23.4 ng/g and 11.4 ng/g
- Compound 4 Sclera/Choroid Homogenate Conc. (TD Phase, Group 3, 2 h, individual animals, homogenate dilution factor 8): 15.1 ng/mL and 29.2 ng/mL and 11.0 ng/mL
- Compound 4 Retina Homogenate Conc. (TD Phase, Group 3, 2 h, individual animals, homogenate dilution factor 20 (164 for animal 207671)): 0.719 ng/mL and 1.17 ng/mL and 0.568 ng/mL
- Compound 4 Plasma Conc. (TD Phase, Group 3, 4 h, individual animals): BQL (BQL = Below lower limit of quantitation (0.0500 ng/mL for Compound 18 and 0.150 ng/mL for Compound 4))
- Final Compound 4 Retina Conc. (TD Phase, Group 3, 4 h, individual animals, BQL set to 0): 16.7 ng/g and 34.6 ng/g and 14.0 ng/g
- Compound 4 Retina Homogenate Conc. (TD Phase, Group 3, 4 h, individual animals, homogenate dilution factor 20): 0.835 ng/mL and 1.73 ng/mL and 0.702 ng/mL
- Compound 4 Plasma Conc. (TD Phase, Group 3, 8 h, Mean, BQL set to 0): BQL (BQL = Below lower limit of quantitation (0.0500 ng/mL for Compound 18 and 0.150 ng/mL for Compound 4))
- Compound 4 Plasma Conc. [4]: BQL (BQL = Below lower limit of quantitation (0.0500 ng/mL for Compound 18 and 0.150 ng/mL for Compound 4))
- Compound 4 Vitreous Humor Conc. [4]: BQL (BQL = Below lower limit of quantitation (0.0500 ng/mL for Compound 18 and 0.150 ng/mL for Compound 4))
- Final Compound 4 Retina Conc. (TD Phase, Group 3, 8 h, individual animals, BQL set to 0): 8.90 ng/g and 0 ng/g and 8.34 ng/g
- Compound 4 Retina Homogenate Conc. (TD Phase, Group 3, 8 h, individual animals, homogenate dilution factor 20): BQL^a (BQL = Below lower limit of quantitation (0.0500 ng/mL for Compound 18 and 0.150 ng/mL for Compound 4)) and 0.417 ng/mL
- tissue of highest concentration (TD phase plasma and ocular tissues): highest in cornea
- AUC0-8 (Trabecular Meshwork, Day 7, Compound 18 0.8 mg/kg ocular instillation once daily, Groups 1 and 3): 533 ng·h/g
- Metabolite/Parent AUC Ratio (Vitreous Humor, Day 7): 447
- AUC0-8 (cornea, Day 7, from mean concentrations): 10096 ng·h/g
- AUC0-8 (iris/ciliary body, Day 7, from mean concentrations): 1795 ng·h/g
- AUC0-8 (lens, Day 7, from mean concentrations): 68.7 ng·h/g
- Metabolite/parent AUC ratio (Compound 4 vs Compound 18) (lens, TD phase): 63.0
- concentration at 0.5 h (male, New Zealand white, rabbit, plasma, other: ocular instillation, 0.8 mg/kg/day, TD Phase, Group 3, 0.5 h, Mean, BQL set to 0, read-out: Compound 4 Plasma Conc.): 1.02 ng/mL
- concentration at 0.5 h (male, New Zealand white, rabbit, plasma, other: ocular instillation, 0.8 mg/kg/day, TD Phase, Group 3, 0.5 h, individual animals, read-out: Compound 4 Plasma Conc.): 1.22 ng/mL
- concentration at 8 h (male, New Zealand white, rabbit, retina homogenate, other: ocular instillation (eye drop), 0.798 mg/kg/day, TD Phase, Group 3, 8 h, individual animals, homogenate dilution factor 20, read-out: Compound 4 Retina Homogenate Conc.): 0.445 ng/mL
- concentration at 1 h (male, New Zealand white, rabbit, retina, other: ocular instillation (eye drop), 0.798 mg/kg/day, TD Phase, Group 1, 1 h, Mean, read-out: Final Compound 4 Retina Conc.): 50.2 ng/g
- concentration at 2 h (male, New Zealand white, rabbit, retina, other: ocular instillation (eye drop), 0.798 mg/kg/day, TD Phase, Group 3, 2 h, Mean, read-out: Final Compound 4 Retina Conc.): 50.9 ng/g
- concentration at 4 h (male, New Zealand white, rabbit, retina, other: ocular instillation (eye drop), 0.798 mg/kg/day, TD Phase, Group 3, 4 h, Mean, read-out: Final Compound 4 Retina Conc.): 21.8 ng/g
- concentration at 8 h (male, New Zealand white, rabbit, retina, other: ocular instillation (eye drop), 0.798 mg/kg/day, TD Phase, Group 3, 8 h, Mean, read-out: Final Compound 4 Retina Conc.): 5.75 ng/g
- concentration at 1 h (male, New Zealand white, rabbit, sclera/choroid homogenate, other: ocular instillation (eye drop), 0.798 mg/kg/day, TD Phase, Group 1, 1 h, individual animals, homogenate dilution factor 8, read-out: Compound 4 Sclera/Choroid Homogenate Conc.): 17 ng/mL
- concentration at 1 h (male, New Zealand white, rabbit, sclera/choroid, other: ocular instillation (eye drop), 0.798 mg/kg/day, TD Phase, Group 1, 1 h, Mean, read-out: Final Compound 4 Sclera/Choroid Conc.): 182 ng/g
- concentration at 1 h (male, New Zealand white, rabbit, sclera/choroid, other: ocular instillation (eye drop), 0.798 mg/kg/day, TD Phase, Group 1, 1 h, individual animals, read-out: Final Compound 4 Sclera/Choroid Conc.): 136 ng/g
- concentration at 0.5 h (male, New Zealand white, rabbit, sclera/choroid, other: ocular instillation (eye drop), 0.798 mg/kg/day, TD Phase, Group 3, 0.5 h, Mean, read-out: Final Compound 4 Sclera/Choroid Conc.): 209 ng/g
- concentration at 2 h (male, New Zealand white, rabbit, sclera/choroid, other: ocular instillation (eye drop), 0.798 mg/kg/day, TD Phase, Group 3, 2 h, Mean, read-out: Final Compound 4 Sclera/Choroid Conc.): 148 ng/g
- Cmax [5]: 124 ng/mL
- Tmax [5]: 1 h
- half-life [5]: 1.95 h
- AUC(0-t) (male, New Zealand white, rabbit, topical or ocular, 0.8 mg/kg/day, aqueous humor, Day 7, from mean concentrations, read-out: AUC0-8): 314 ng·h/mL
- Cmax [6]: 3600 ng/g
- Tmax [6]: 1 h
- half-life [6]: 2.63 h
- Cmax [7]: 980 ng/g
- Tmax [7]: 1 h
- half-life [7]: 2.11 h
- Cmax [8]: 18.1 ng/g
- Tmax [8]: 1 h
- half-life [8]: 2.25 h
